Test results: patent publication US8946266B2, “Substituted triazole and imidazole derivatives as gamma secretase modulators” (Janssen Pharmaceuticals, Inc., priority 2009, dated 2015)

Legend:
Aβ42 [1] = assay: In vivo efficacy, Method 2: brain soluble Aβ42 lowering 4 h after a single oral dose, ELISA (Table 4b); parameters: species or system mouse; conditions: dose 30 mg/kg oral dosing
Excerpt: (§1) To determine whether acute administration of an Aβ42 lowering agent would reduce Aβ42 levels in vivo, non-transgenic rodents, e.g. mice or rats were used. Animals treated with the Aβ42 lowering agent were examined and compared to those untreated or treated with vehicle and brain levels of soluble Aβ42 and total Aβ were quantitated by standard techniques, for example, using ELISA. Treatment periods varied from hours (h) to days and were adjusted based on the results of the Aβ42 lowering once a time course of onset of effect could be established.
(§2) A typical protocol for measuring Aβ42 lowering in vivo is shown but it is only one of many variations that could be used to optimize the levels of detectable Aβ. For example, Aβ42 lowering compounds were formulated in 20% of Captisol® (a sulfobutyl ether of β-cyclodextrin) in water or 20% hydroxypropyl β cyclodextrin. The Aβ42 lowering agents were administered as a single oral dose or by any acceptable route of administration to overnight fasted animals. After 4 h, the animals were sacrificed and Aβ42 levels were analysed.
(§3) Blood was collected by decapitation and exsanguinations in EDTA-treated collection tubes. Blood was centrifuged at 1900 g for 10 minutes (min) at 4° C. and the plasma recovered and flash frozen for later analysis. The brain was removed from the cranium and hindbrain. The cerebellum was removed and the left and right hemisphere were separated. The left hemisphere was stored at −18° C. for quantitative analysis of test compound levels. The right hemisphere was rinsed with phosphate-buffered saline (PBS) buffer and immediately frozen on dry ice and stored at −80° C. until homogenization for biochemical assays.
(§4) Mouse brains from non-transgenic animals were resuspended in 8 volumes of 0.4% DEA (diethylamine)/50 mM NaCl containing protease inhibitors (Roche-11873580001 or 04693159001) per gram of tissue, e.g. for 0.158 g brain, add 1.264 ml of 0.4% DEA. All samples were homogenized in the FastPrep-24 system (MP Biomedicals) using lysing matrix D (MPBio #6913-100) at 6 m/s for 20 seconds. Homogenates were centrifuged at 221.300×g for 50 min. The resulting high speed supernatants were then transferred to fresh eppendorf tubes. Nine parts of supernatant were neutralized with 1 part 0.5 M Tris-HCl pH 6.8 and used to quantify Aβtotal and Aβ42.
(§5) To quantify the amount of Aβtotal and Aβ42 in the soluble fraction of the brain homogenates, Enzyme-Linked-Immunosorbent-Assays were used. Briefly, the standards (a dilution of synthetic Aβ1-40 and Aβ1-42, Bachem) were prepared in 1.5 ml Eppendorf tube in Ultraculture, with final concentrations ranging from 10000 to 0.3 pg/ml. The samples and standards were co-incubated with HRPO-labelled N-terminal antibody for Aβ42 detection and with the biotinylated mid-domain antibody 4G8 for Aβtotal detection. 50 μl of conjugate/sample or conjugate/standards mixtures were then added to the antibody-coated plate (the capture antibodies selectively recognize the C-terminal end of Aβ42, antibody JRF/cAβ42/26, for Aβ42 detection and the N-terminus of Aβ, antibody JRF/rAβ/2, for Aβtotal detection). The plate was allowed to incubate overnight at 4° C. in order to allow formation of the antibody-amyloid complex. Following this incubation and subsequent wash steps the ELISA for Aβ42 quantification was finished by addition of Quanta Blu fluorogenic peroxidase substrate according to the manufacturer's instructions (Pierce Corp., Rockford, Ill.). A reading was performed after 10 to 15 min (excitation 320/emission 420).
In this model at least 20% Aβ42 lowering compared to untreated animals would be advantageous.
(§6) The results are shown in Table 4b (dose 30 mg/kg oral dosing): […]

Aβtotal [2] = assay: γ-secretase-modulating activity, Method 2: Aβtotal Alphalisa in supernatant of SKNBE2 cells carrying APP 695-wild type (Table 3b); assay type: cell-based; conditions: overnight, read-out: IC50 Aβtot
Summary of the method: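 SKNBE2 cells expressing wild-type APP 695 were incubated overnight at 37 °C, 5% CO2 with test compound at a range of concentrations. Aβtotal in supernatant was measured by AlphaLISA sandwich (N-terminal JRF/AβN/25 acceptor, biotinylated mid-region 4G8 donor); IC50 from 4-parameter fit of percent control versus log concentration.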

Aβ42 [3] = assay: γ-secretase-modulating activity, Method 2: Aβ42 Alphalisa in supernatant of SKNBE2 cells carrying APP 695-wild type (Table 3b); assay type: cell-based; conditions: overnight
Summary of the method: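 SKNBE2 cells expressing wild-type APP695 were incubated overnight at 37° C. with test compound. Secreted Aβ42 was then measured by AlphaLISA, using a C-terminal Aβ42 antibody paired with an N-terminal Aβ antibody. IC50 came from a 4-parameter fit of percent of compound-free control.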

Aβtotal [4] = assay: In vivo efficacy, Method 2: brain soluble Aβtotal lowering 4 h after a single oral dose, ELISA (Table 4b); parameters: species or system mouse; conditions: dose 30 mg/kg oral dosing
Excerpt: as §1, §2, §3, §4, §5
For Aβtotal detection, a Streptavidine-Peroxidase-Conjugate was added, followed 60 min later by an additional wash step and addition of Quanta Blu fluorogenic peroxidase substrate according to the manufacturer's instructions (Pierce Corp., Rockford, Ill.). A reading was performed after 10 to 15 min (excitation 320 nm/emission 420 nm).
as §6

SMILES | Aβ42 (% Ctrl) _Mean (Aβ42 [1]) [% Ctrl] | IC50 (Aβtotal [2]) [nM] | IC50 (Aβ42 [3]) [nM] | Aβtotal (% Ctrl) _Mean (Aβtotal [4]) [% Ctrl]
COc1nc(-c2nc(Nc3cccc(Cl)c3)n(C)n2)ccc1-n1cnc(C)c1 [Compound 100] | 12 | > 10000 | 28 | −4
COc1cc(-c2nc(Nc3cc([S+](C)[O-])ccc3F)n(C)n2)ccc1-n1cnc(C)c1 (racemic) [Compound 330] | −9 | 68 | 603 | −2
COc1cc(-c2nc(Nc3ccccc3OC(F)F)n(C)n2)ccc1-n1cnc(C)c1 [Compound 310] | 45 | > 10000 | 44 | 20
COc1cc(-c2nc(Nc3cccc(Cl)c3C(F)(F)F)n(C)n2)ccc1-n1cnc(C)c1 [Compound 169] | 57 | > 10000 | 41 | 9
COc1nc(-c2nc3n(n2)CCC[C@H]3c2ccccc2C(F)(F)F)ccc1-n1cnc(C)c1 [Compound 263] | 62 | > 10000 | 29 | 12
COc1cc(-c2nc(Nc3cc(Br)ccc3F)n(C)n2)ccc1-n1cnc(C)c1 [Compound 303] | 33 | > 10000 | 40 | 23
COc1cc(-c2nc(Nc3cc(C(F)(F)F)ccc3C(F)(F)F)n(C)n2)ccc1-n1cnc(C)c1 [Compound 144] | 38 | > 10000 | 9 | 9
COc1cc(-c2nc(Nc3cc(C(C)(C)C)nn3C)n(C)n2)ccc1-n1cnc(C)c1 [Compound 244] | 7 | > 10000 | 83 | 5
COc1cc(-c2nc(Nc3c(F)ccc(C(F)(F)F)c3F)n(C)n2)ccc1-n1cnc(C)c1 [Compound 211] | 32 | > 10000 | 25 | −1
COc1cc(-c2nc3n(n2)CCCC3c2cc(OC(F)(F)F)ccc2F)ccc1-n1cnc(C)c1 (stereo not drawn) [Compound 265] | 55 | > 10000 | 19 | 22
COc1cc(-c2nc3n(n2)CCC[C@H]3c2ccccc2Cl)ccc1-n1cnc(C)c1 [Compound 255] | 21 | 9330 | 32 | 11
COc1cc(-c2nc(Nc3cc(OC(C)C)ccc3F)n(C)n2)ccc1-n1cnc(C)c1 [Compound 307] | 19 | > 10000 | 8 | −2
COc1cc(-c2nc(Nc3ccc(F)c(C(F)(F)F)c3)n(C)n2)ccc1-n1cnc(C)c1 [Compound 152] | 10 | > 10000 | 19 | −9
COc1cc(C(F)(F)F)cc(Nc2nc(-c3ccc(-n4cnc(C)c4)c(OC)n3)nn2C)c1F [Compound 353] | 63 | > 10000 | 17 | 2
COc1cc(-c2nc(Nc3cc(C)ccc3C)n(C)n2)ccc1-n1cnc(C)c1 [Compound 198] | 55 | > 10000 | 13 | 6
COc1cc(-c2nc3n(n2)CCOC3c2cc(OC(F)(F)F)ccc2F)ccc1-n1cnc(C)c1 (stereo not drawn) [Compound 128] | 47 | > 10000 | 28 | 24
COc1ccc(C(F)(F)F)cc1Nc1nc(-c2ccc(-n3cnc(C)c3)c(OC)c2)nn1C [Compound 217] | 35 | 6460 | 26 | −4
COc1c(-n2cnc(C)c2)ccc(-c2nc(Nc3cc(C(F)(F)F)ccc3F)n(C)n2)c1F [Compound 320] | 23 | > 10000 | 45 | 8
COc1cc(-c2nc3n(n2)CCC[C@H]3c2ccc(F)cc2C)ccc1-n1cnc(C)c1.Cl [Compound 315] | 49 | > 10000 | 29 | 10
COc1nc(-c2nc(Nc3cccc(F)c3Cl)n(C)n2)ccc1-n1cnc(C)c1 [Compound 302] | 31 | > 10000 | 71 | −3
COc1cc(-c2nc(Nc3ccccc3OC(F)(F)F)n(C)n2)ccc1-n1cnc(C)c1.Cl.Cl [Compound 182] | 55 | 8510 | 35 | 14
COc1nc(-c2nc(Nc3ccc(F)cc3C(F)(F)F)n(C)n2)ccc1-n1cnc(C)c1 [Compound 158] | 44 | > 10000 | 40 | 3
COc1cc(-c2nc(Nc3cccc(F)c3C)n(C)n2)ccc1-n1cnc(C)c1 [Compound 304] | 48 | > 10000 | 42 | 11
COc1cc(-c2nc3n(n2)CCCC3c2cc(C(F)(F)F)ccc2C)ccc1-n1cnc(C)c1 (stereo not drawn) [Compound 264] | 49 | > 10000 | 15 | 8
COc1cc(-c2nc(Nc3cc(C(F)(F)F)ccc3F)n(C)n2)ccc1-n1cnc(C)c1 [Compound 162] | 35 | 3630 | 11 | 2
COc1cc(-c2nc(Nc3cc(C(F)(F)F)ccc3Cl)n(C)n2)ccc1-n1cnc(C)c1 [Compound 177] | 51 | > 10000 | 10 | 11
COc1cc(-c2nc(Nc3cccc(OC(F)(F)F)c3)n(C)n2)ccc1-n1cnc(C)c1 [Compound 181] | 28 | 5750 | 25 | 9
COc1cc(-c2nc(Nc3cc(C(F)(F)F)ccc3F)n(CC(C)(C)O)n2)ccc1-n1cnc(C)c1 [Compound 136] | −14 | 3020 | 76 | 1
COc1cc(-c2nc(Nc3ccccc3F)n(C)n2)ccc1-n1cnc(C)c1 [Compound 105] | 24 | > 10000 | 132 | −7
COc1cc(-c2nc(Nc3cc(OC(F)(F)F)ccc3F)n(C)n2)ccc1-n1cnc(C)c1 [Compound 185] | 40 | > 10000 | 17 | 9
